Experimental data: ChEMBL document CHEMBL3870309, “Identification of new potent phthalazine derivatives with VEGFR-2 and EGFR kinase inhibitory activity” (Eur J Med Chem, 2016)

Key:
[1] = target: Vascular endothelial growth factor receptor 2 (Homo sapiens, UniProt P35968); test: Inhibition of VEGFR-2 (unknown origin) using poly (Glu, Tyr) 4:1 as substrate after 1 hr by ELISA
[2] = cells; settings: Homo sapiens, HeLa, 72 h
Description: Antiproliferative activity against human HeLa cells after 72 hrs by Sulforhodamine B-stain assay

[3] = target: Epidermal growth factor receptor (Homo sapiens, UniProt P00533); test: Inhibition of EGFR (unknown origin) using poly (Glu, Tyr) 4:1 as substrate after 1 hr by ELISA
Epidermal growth factor receptor, sequence (P00533 whole entry): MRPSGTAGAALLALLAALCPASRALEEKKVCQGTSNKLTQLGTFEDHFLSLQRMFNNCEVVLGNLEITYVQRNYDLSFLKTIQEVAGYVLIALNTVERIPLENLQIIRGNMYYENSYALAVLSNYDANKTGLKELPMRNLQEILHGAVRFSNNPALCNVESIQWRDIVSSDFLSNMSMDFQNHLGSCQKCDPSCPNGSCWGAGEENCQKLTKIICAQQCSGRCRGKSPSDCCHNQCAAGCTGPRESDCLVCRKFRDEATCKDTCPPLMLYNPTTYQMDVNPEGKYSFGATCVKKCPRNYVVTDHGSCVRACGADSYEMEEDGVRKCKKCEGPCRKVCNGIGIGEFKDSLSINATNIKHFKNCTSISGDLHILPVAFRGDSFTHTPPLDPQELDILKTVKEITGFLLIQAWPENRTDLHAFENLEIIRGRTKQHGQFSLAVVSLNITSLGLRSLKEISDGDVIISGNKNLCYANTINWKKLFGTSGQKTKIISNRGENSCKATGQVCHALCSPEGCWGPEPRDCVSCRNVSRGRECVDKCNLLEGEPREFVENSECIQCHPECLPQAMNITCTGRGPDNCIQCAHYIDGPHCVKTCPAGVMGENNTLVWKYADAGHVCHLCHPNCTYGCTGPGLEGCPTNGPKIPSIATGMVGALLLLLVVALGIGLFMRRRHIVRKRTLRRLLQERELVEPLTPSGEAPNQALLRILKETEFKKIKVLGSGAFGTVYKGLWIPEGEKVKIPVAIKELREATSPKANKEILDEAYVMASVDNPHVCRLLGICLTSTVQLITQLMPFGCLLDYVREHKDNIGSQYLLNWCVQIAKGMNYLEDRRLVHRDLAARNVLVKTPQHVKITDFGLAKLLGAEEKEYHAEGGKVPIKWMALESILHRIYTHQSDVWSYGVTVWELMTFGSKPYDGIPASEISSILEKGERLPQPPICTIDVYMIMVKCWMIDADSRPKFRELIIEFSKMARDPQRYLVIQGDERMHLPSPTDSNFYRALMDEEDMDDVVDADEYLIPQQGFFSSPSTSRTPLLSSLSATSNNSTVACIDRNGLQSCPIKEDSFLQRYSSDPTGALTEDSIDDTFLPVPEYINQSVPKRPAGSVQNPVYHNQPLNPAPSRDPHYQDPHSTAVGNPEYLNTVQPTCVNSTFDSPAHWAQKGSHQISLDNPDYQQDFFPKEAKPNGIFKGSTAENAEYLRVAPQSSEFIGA

Vascular endothelial growth factor receptor 2, sequence (P35968 whole entry): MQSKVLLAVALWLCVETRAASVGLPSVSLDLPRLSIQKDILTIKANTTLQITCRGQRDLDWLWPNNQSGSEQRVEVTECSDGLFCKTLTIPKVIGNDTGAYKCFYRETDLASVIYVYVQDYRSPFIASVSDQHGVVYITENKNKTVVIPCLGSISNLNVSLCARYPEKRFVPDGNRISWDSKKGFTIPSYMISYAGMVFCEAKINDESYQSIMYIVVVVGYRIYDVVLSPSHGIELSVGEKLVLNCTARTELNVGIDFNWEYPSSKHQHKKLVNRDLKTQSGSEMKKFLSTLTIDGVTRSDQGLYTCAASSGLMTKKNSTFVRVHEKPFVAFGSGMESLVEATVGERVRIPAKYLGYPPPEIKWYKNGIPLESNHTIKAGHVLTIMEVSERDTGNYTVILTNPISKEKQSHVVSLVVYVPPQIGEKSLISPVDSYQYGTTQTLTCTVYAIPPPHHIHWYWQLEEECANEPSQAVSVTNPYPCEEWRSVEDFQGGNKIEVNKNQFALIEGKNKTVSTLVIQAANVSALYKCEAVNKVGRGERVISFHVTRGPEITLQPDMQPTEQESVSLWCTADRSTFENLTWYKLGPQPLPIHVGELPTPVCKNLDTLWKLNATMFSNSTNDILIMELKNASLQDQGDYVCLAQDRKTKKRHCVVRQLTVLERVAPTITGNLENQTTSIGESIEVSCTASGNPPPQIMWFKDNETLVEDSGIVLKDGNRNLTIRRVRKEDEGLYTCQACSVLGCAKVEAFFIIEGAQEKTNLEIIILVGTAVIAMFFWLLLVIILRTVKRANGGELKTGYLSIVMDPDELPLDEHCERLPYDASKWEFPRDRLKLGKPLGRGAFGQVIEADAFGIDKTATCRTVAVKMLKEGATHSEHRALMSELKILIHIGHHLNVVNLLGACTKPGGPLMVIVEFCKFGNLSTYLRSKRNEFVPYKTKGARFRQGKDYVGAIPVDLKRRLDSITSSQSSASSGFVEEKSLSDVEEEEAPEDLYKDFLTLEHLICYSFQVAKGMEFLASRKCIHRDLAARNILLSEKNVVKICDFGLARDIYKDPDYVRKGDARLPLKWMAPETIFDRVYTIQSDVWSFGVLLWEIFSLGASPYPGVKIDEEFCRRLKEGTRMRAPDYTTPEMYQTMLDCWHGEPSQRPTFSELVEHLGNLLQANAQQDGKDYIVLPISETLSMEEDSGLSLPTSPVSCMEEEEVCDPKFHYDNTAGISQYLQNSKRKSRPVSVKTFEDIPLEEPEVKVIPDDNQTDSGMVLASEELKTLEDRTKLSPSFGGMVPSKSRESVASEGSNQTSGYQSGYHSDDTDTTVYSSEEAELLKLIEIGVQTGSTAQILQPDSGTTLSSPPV

IC50 [1] [nM]	IC50 [2] [nM]	IC50 [3] [nM]	Structure (SMILES)
7.3	48	76	CCN=C(S)NNc1nncc2ccccc12
3.6	65	47	CCN1C(=O)CS/C1=N/Nc1nncc2ccccc12
4.5	49	52	CCCCNC(=S)NNc1nncc2ccccc12
0.54	2.7	4.4	CCOC(=O)c1ccc(Nc2nncc3ccccc23)cc1
2.7	42	42	O=C1CS/C(=N/Nc2nncc3ccccc23)N1c1ccc(Cl)cc1
0.43	1.5	4.1	N#Cc1ccc(Nc2nncc3ccccc23)cc1
1.2	22	23	CCCCN1C(=O)CS/C1=N/Nc1nncc2ccccc12
0.68	3.92	6.2	O=C(O)c1ccc(Nc2nncc3ccccc23)cc1
4.4	57	51	O=C1CS/C(=N/Nc2nncc3ccccc23)N1
2.4	34	36	COc1ccc(N2C(=O)CS/C2=N/Nc2nncc3ccccc23)cc1
7.5	37	77	NC(=S)NNc1nncc2ccccc12
0.67	2.8	6	Fc1ccc(Nc2nncc3ccccc23)cc1
3.5	56	45	O=C1CS/C(=N/Nc2nncc3ccccc23)N1c1ccccc1

Further lines, the molecule ahead of its results:

Structure (SMILES)	IC50 [1] [nM]	IC50 [2] [nM]	IC50 [3] [nM]
S=C(NNc1nncc2ccccc12)Nc1ccc(Cl)cc1	6.1	20	64
COc1ccc(/C=C/C(=N/Nc2nncc3ccccc23)c2ccc(Cl)cc2)cc1	0.41	1.2	5.4
Cc1cc(NS(=O)(=O)c2ccc(Nc3nncc4ccccc34)cc2)no1	9.7	13	130
Clc1ccc(/C=C/C(=N/Nc2nncc3ccccc23)c2ccccc2)cc1	0.55	2.6	4.6
C(=C\c1ccccc1)/C(=N/Nc1nncc2ccccc12)c1ccccc1	0.42	1.4	5.6
O=S(=O)(Nc1ncccn1)c1ccc(Nc2nncc3ccccc23)cc1	8.5	14	86
S=C(NNc1nncc2ccccc12)Nc1ccccc1	6.2	39	65
NS(=O)(=O)c1ccc(Nc2nncc3ccccc23)cc1	9.8	12	140
COc1ccc(NC(=S)NNc2nncc3ccccc23)cc1	5.7	38	53
Cc1cc(C)nc(NS(=O)(=O)c2ccc(Nc3nncc4ccccc34)cc2)n1	0.77	3.5	6.7
Fc1ccc(/C=C/C(=N/Nc2nncc3ccccc23)c2ccccc2)cc1	0.88	4.45	
Clc1ccc(C(/C=C/c2ccccc2)=N\Nc2nncc3ccccc23)cc1	0.69	3.3	6.3
O=S(=O)(Nc1nccs1)c1ccc(Nc2nncc3ccccc23)cc1	8.6	15	88
O=S(=O)(Nc1ccccn1)c1ccc(Nc2nncc3ccccc23)cc1	7.8	26	84
Cc1ccc(C(/C=C/c2ccc(F)cc2)=N\Nc2nncc3ccccc23)cc1	0.7	3.4	6.5
Oc1cc(O)c2cc(O)c(-c3cc(O)c(O)c(O)c3)[o+]c2c1 [DELPHINIDIN CHLORIDE]	5.09		6.27
